From patent US20250145625A1, “PYRAZOLOPYRIMIDINE DERIVATIVE AND ANTICANCER PHARMACEUTICAL COMPOSITION CONTAINING SAME AS ACTIVE INGREDIENT” (KOREA RESEARCH INSTITUTE OF CHEMICAL TECHNOLOGY, priority 2021, published 2025)

Experiments:
[1] = tested on: MDA-MB-231 triple negative breast cancer cell line; assay: Cytotoxicity in TTK-expressed MDA-MB-231 cells; format: cell-based; settings: Homo sapiens, MDA-MB-231, 120 h, 5 days
Protocol: To determine the cytotoxicity of a compound represented by Chemical Formula 1 according to the present invention to MDA-MB-231 cells, the following test was conducted.
MDA-MB-231 triple negative breast cancer cell line purchased from ATCC was inoculated into each well of a 96-well plate at a volume of 90 μL containing 2,000 cells. Thereafter, an example compound of the present invention was added to respective wells at concentrations of 10 μM, 3 μM, 1 μM, 0.3 μM, 0.1 μM, and 0 μM, and the cells were cultured in a cell incubator at 37° C. for 5 days. Five days later, 10 μL of Cyto X solution (manufacturer: LPS Solution) was added to each of the wells, and the absorbance was measured at 450 nm using an Epoch microplate spectrophotometer (manufacturer: BioTek Instruments Inc.) according to the product's user guide. For cytotoxicity, the IC50 value for cytotoxicity of each compound was calculated by quantifying the number of cells using the measured value.

[2] = tested on: HCT116 colon cancer cell line; assay: Cytotoxicity in TTK-expressed HCT116 cells; format: cell-based; settings: Homo sapiens, HCT-116, 120 h, 5 days
Protocol: To determine the cytotoxicity of a compound represented by Chemical Formula 1 according to the present invention to HCT116 cells, the following test was conducted.
HCT116 colon cancer cell line purchased from ATCC was inoculated into each well of a 96-well plate at a volume of 90 μL containing 2,000 cells. Thereafter, an example compound of the present invention was added to respective wells at concentrations of […], 3 μM, 1 μM, 0.3 μM, 0.1 μM, and 0 μM, and the cells were cultured in a cell incubator at 37° C. for 5 days. After 5 days, the number of cells was measured by CCK8 test method, and the cytotoxicity was determined by calculating the IC50 value for cytotoxicity of each compound.

[3] = molecular target: recombinant human TTK protein (Homo sapiens (Human), UniProt P33981); assay: Evaluation of TTK activity inhibitory ability (scintillation counting); format: biochemical; settings: TTK inhibitory activity; read-out: IC50;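 further: reaction stopped with 0.5% phosphoric acid, spotted on P30 filter, TTK activity counted by scintillation, uninhibited no-compound wells taken as 100% control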
Sequence of recombinant human TTK protein (P33981 whole entry): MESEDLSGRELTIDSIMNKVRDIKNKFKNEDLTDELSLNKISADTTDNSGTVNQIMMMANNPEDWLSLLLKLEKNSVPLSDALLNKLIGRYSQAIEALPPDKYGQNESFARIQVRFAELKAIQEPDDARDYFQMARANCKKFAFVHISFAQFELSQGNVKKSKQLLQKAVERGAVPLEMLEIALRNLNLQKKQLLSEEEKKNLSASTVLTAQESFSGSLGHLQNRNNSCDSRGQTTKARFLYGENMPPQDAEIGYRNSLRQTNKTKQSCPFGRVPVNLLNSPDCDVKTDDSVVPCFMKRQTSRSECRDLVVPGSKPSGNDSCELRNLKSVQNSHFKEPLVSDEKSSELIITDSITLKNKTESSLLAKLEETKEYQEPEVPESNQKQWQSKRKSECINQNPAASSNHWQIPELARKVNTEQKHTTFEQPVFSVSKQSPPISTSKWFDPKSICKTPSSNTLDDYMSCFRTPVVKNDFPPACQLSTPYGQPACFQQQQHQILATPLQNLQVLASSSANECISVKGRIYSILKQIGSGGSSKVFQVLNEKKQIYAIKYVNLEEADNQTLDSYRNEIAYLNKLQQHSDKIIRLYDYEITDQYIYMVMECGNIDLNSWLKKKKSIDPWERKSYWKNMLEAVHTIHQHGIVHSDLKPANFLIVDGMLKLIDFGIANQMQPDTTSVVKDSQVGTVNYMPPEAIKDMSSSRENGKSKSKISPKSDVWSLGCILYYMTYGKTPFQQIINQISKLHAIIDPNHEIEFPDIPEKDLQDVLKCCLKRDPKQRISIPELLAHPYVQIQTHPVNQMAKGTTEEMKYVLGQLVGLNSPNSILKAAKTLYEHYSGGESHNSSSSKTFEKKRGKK
Protocol: To determine the ability of a compound represented by Chemical Formula 1 according to the present invention to inhibit TTK activity, the following experiment was conducted.
After that, the reaction was terminated by adding phosphoric acid to a concentration of 0.5%, and 10 of the reaction solution was dropped onto a P30 filter. […] The activity of TTK was measured through scintillation counting. The activity value from the group with no compound was set as 100% of control, and the degree of TTK inhibition by the compound was calculated.

Compound | IC50 [3] [nM] | IC50 [1] [nM] | IC50 [2] [nM]
COc1cc(N2CCOCC2)ccc1Nc1nc(NC2CCCCC2)c2c(-c3nnco3)n[nH]c2n1 [Compound 14-2, N^4-cyclohexyl-N^6-(2-methoxy-4-morpholinophenyl)-3-(1,3,4-oxadiazol-2-yl)-1H-pyrazolo[3,4-d]pyrimidine-4,6-diamine] | 30 to 100 | 150 to 500 | 150 to 500
COc1cc(N2CCOCC2)ccc1Nc1nc(NC2CCCCC2)c2c(-c3ccc4nc(C)oc4c3)n[nH]c2n1 [Compound 8-18, N^4-cyclohexyl-N^6-(2-methoxy-4-morpholinophenyl)-3-(2-methylbenzooxazol-6-yl)-1H-pyrazolo[3,4-d]pyrimidine-4,6-diamine] | 30 to 100 | 150 to 500 | < 150
Cn1cc(-c2n[nH]c3nc(NC4CCC(N5CCOCC5)CC4)nc(NC4CCCCC4)c23)cn1 (stereo not shown) [Compound 8-30, N^4-cyclohexyl-3-(1-methyl-1H-pyrazol-4-yl)-N^6-(4-morpholinocyclohexyl)-1H-pyrazolo[3,4-d]pyrimidine-4,6-diamine] | 100 to 300 | > 1000 | –
COc1cc(N2CCOCC2)ccc1Nc1nc(NC2CCCCC2)c2c(-c3nncn3C)n[nH]c2n1 [Compound 14-1, N^4-cyclohexyl-N^6-(2-methoxy-4-morpholinophenyl)-3-(4-methyl-4H-1,2,4-triazol-3-yl)-1H-pyrazolo[3,4-d]pyrimidine-4,6-diamine] | 30 to 100 | < 150 | 150 to 500
COc1cc(N2CCOCC2)ccc1Nc1nc(NCC2CCCO2)c2c(-c3cnoc3)n[nH]c2n1 (stereo not shown) [Compound 8-35, 3-(Isoxazol-4-yl)-N^6-(2-methoxy-4-morpholinophenyl)-N^4-((tetrahydrofuran-2-yl)methyl)-1H-pyrazolo[3,4-d]pyrimidine-4,6-diamine] | < 30 | > 1000 | > 1000
COc1cc(N2CCOCC2)ccc1Nc1nc(NC2CCCCC2)c2c(-c3cccc(C(N)=O)c3)n[nH]c2n1 [Compound 8-2, 3-(4-(Cyclohexylamino)-6-((2-methoxy-4-morpholinophenyl)amino)-1H-pyrazolo[3,4-d]pyrimidin-3-yl)benzamide] | – | > 1000 | > 1000
COc1cc(N2CCOCC2)ccc1Nc1nc(NC2CCCCC2)c2c(-c3cnc[nH]3)n[nH]c2n1 [Compound 18-2, N^4-cyclohexyl-3-(1H-imidazol-5-yl)-N^6-(2-methoxy-4-morpholinophenyl)-1H-pyrazolo[3,4-d]pyrimidine-4,6-diamine] | 30 to 100 | 500 to 1000 | 500 to 1000
COc1cc(N2CCOCC2)ccc1Nc1nc(NC2CCCCC2)c2c(-c3ccco3)n[nH]c2n1 [Compound 8-14, N^4-cyclohexyl-3-(furan-2-yl)-N^6-(2-methoxy-4-morpholinophenyl)-1H-pyrazolo[3,4-d]pyrimidine-4,6-diamine] | 30 to 100 | 150 to 500 | 150 to 500
CC(C)Oc1cc(N2CCOCC2)ccc1Nc1nc(NC2CCCCC2)c2c(-c3cnn(C)c3)n[nH]c2n1 [Compound 26-1, N^4-cyclohexyl-N^6-(2-isopropoxy-4-morpholinophenyl)-3-(1-methyl-1H-pyrazol-4-yl)-1H-pyrazolo[3,4-d]pyrimidine-4,6-diamine] | 30 to 100 | 150 to 500 | 500 to 1000
COc1cc(N2CCOCC2)ccc1Nc1nc(NC2CCCCC2)c2c(-c3cnco3)n[nH]c2n1 [Compound 18-1, N^4-cyclohexyl-N^6-(2-methoxy-4-morpholinophenyl)-3-(oxazol-5-yl)-1H-pyrazolo[3,4-d]pyrimidine-4,6-diamine] | < 30 | < 150 | < 150
COc1cc(N2CCOCC2)ccc1Nc1nc(NC2CCCCC2)c2c(-c3cccc(NC(=O)C4CC4)c3)n[nH]c2n1 [Compound 8-4, N-(3-(4-(cyclohexylamino)-6-((2-methoxy-4-morpholinophenyl)amino)-1H-pyrazolo[3,4-d]pyrimidin-3-yl)phenyl)cyclopropanecarboxamide] | – | 500 to 1000 | > 1000
COc1cc(N2CCOCC2)ccc1Nc1nc(NC2CCCCC2)c2c(-c3ccc4[nH]ncc4c3)n[nH]c2n1 [Compound 8-17, N^4-cyclohexyl-3-(1H-indazol-5-yl)-N^6-(2-methoxy-4-morpholinophenyl)-1H-pyrazolo[3,4-d]pyrimidine-4,6-diamine] | – | 500 to 1000 | 500 to 1000
CNC(=O)c1cccc(-c2n[nH]c3nc(Nc4ccc(N5CCOCC5)cc4OC)nc(NC4CCCCC4)c23)c1 [Compound 8-5, 3-(4-(cyclohexylamino)-6-((2-methoxy-4-morpholinophenyl)amino)-1H-pyrazolo[3,4-d]pyrimidin-3-yl)-N-methylbenzamide] | – | > 1000 | > 1000

Continued, in another order:

IC50 [3] [nM] | Compound | IC50 [1] [nM] | IC50 [2] [nM]
< 30 | COc1cc(N2CCOCC2)ccc1Nc1nc(NC2CCOCC2)c2c(-c3cnn(C)c3)n[nH]c2n1 [Compound 8-23, N^6-(2-methoxy-4-morpholinophenyl)-3-(1-methyl-1H-pyrazol-4-yl)-N^4-(tetrahydro-2H-pyran-4-yl)-1H-pyrazolo[3,4-d]pyrimidine-4,6-diamine] | 500 to 1000 | 150 to 500
< 30 | COc1cc(-c2nncn2C)ccc1Nc1nc(NC2CCCCC2)c2c(-c3cnn(C)c3)n[nH]c2n1 [Compound 11-2, N^4-cyclohexyl-N^6-(2-methoxy-4-(4-methyl-4H-1,2,4-triazol-3-yl)phenyl)-3-(1-methyl-1H-pyrazol-4-yl)-1H-pyrazolo[3,4-d]pyrimidine-4,6-diamine] | < 150 | < 150
< 30 | COc1cc(N2CCOCC2)ccc1Nc1nc(NC2CCOCC2)c2c(-c3cccnc3)n[nH]c2n1 [Compound 8-27, N^6-(2-methoxy-4-morpholinophenyl)-3-(pyridin-3-yl)-N^4-(tetrahydro-2H-pyran-4-yl)-1H-pyrazolo[3,4-d]pyrimidine-4,6-diamine] | 500 to 1000 | 500 to 1000
< 30 | COc1cc(N2CCOCC2)ccc1Nc1nc(NC2CCOCC2)c2c(-c3ccn(C)n3)n[nH]c2n1 [Compound 8-25, N^6-(2-methoxy-4-morpholinophenyl)-3-(1-methyl-1H-pyrazol-3-yl)-N^4-(tetrahydro-2H-pyran-4-yl)-1H-pyrazolo[3,4-d]pyrimidine-4,6-diamine] | 150 to 500 | 150 to 500
< 30 | COc1cc(-c2nncn2C)ccc1Nc1nc(NC2CCOCC2)c2c(-c3cnco3)n[nH]c2n1 [Compound 33-3, N^6-(2-methoxy-4-(4-methyl-4H-1,2,4-triazol-3-yl)phenyl)-3-(oxazol-5-yl)-N^4-(tetrahydro-2H-pyran-4-yl)-1H-pyrazolo[3,4-d]pyrimidine-4,6-diamine] | 500 to 1000 | > 1000
< 30 | COc1cc(N2CCOCC2)ccc1Nc1nc(NCC2CCCO2)c2c(-c3cnn(C)c3)n[nH]c2n1 (stereo not shown) [Compound 8-34, N^6-(2-methoxy-4-morpholinophenyl)-3-(1-methyl-1H-pyrazol-4-yl)-N^4-((tetrahydrofuran-2-yl)methyl)-1H-pyrazolo[3,4-d]pyrimidine-4,6-diamine] | > 1000 | > 1000
< 30 | COc1cc(N2CCOCC2)ccc1Nc1nc(NC2CCOCC2)c2c(-c3ncco3)n[nH]c2n1 [Compound 8-22, N^6-(2-methoxy-4-morpholinophenyl)-3-(oxazol-2-yl)-N^4-(tetrahydro-2H-pyran-4-yl)-1H-pyrazolo[3,4-d]pyrimidine-4,6-diamine] | 500 to 1000 | < 150
< 30 | COc1cc(N2CCOCC2)ccc1Nc1nc(NC2CCOCC2)c2c(-c3ccncc3)n[nH]c2n1 [Compound 8-28, N^6-(2-methoxy-4-morpholinophenyl)-3-(pyridin-4-yl)-N^4-(tetrahydro-2H-pyran-4-yl)-1H-pyrazolo[3,4-d]pyrimidine-4,6-diamine] | 150 to 500 | 150 to 500
30 to 100 | COc1cc(C(=O)N2CCN(C)CC2)ccc1Nc1nc(NC2CCCCC2)c2c(-c3cnn(C)c3)n[nH]c2n1 [Compound 11-5, (4-((4-(cyclohexylamino)-3-(1-methyl-1H-pyrazol-4-yl)-1H-pyrazolo[3,4-d]pyrimidin-6-yl)amino)-3-methoxyphenyl)(4-methylpiperazin-1-yl)methanone] | 500 to 1000 | 150 to 500
< 30 | COc1cc(C(=O)N2CCOCC2)ccc1Nc1nc(NC2CCCCC2)c2c(-c3cnn(C)c3)n[nH]c2n1 [Compound 11-4, (4-((4-(cyclohexylamino)-3-(1-methyl-1H-pyrazol-4-yl)-1H-pyrazolo[3,4-d]pyrimidin-6-yl)amino)-3-methoxyphenyl)(morpholino)methanone] | 150 to 500 | 150 to 500
